“Also recorded” adds a separate entry of the source. Marks after values point to notes of the source that are not given here.
Legend:
[1] = tested on: Drosophila melanogaster; test: Antigenotoxicity, wing spot test, combined treatment with hydrogen peroxide; format: in vivo; design: key to Total Spots, statistical diagnosis (Kastenbaum-Bowman test): * (positive); Δ (negative); β (inconclusive) vs. respective positive control
Method: All inconclusive and positive results (p > 0.05) were analysed with the nonparametric U-test of Mann, Whitney and Wilcoxon (α = β = 0.05). Anter et al. described the antigenotoxicity method conducted in D. melanogaster. […] Single and twin spots per wing were also recorded and compared with the concurrent negative control as described before. Finally, the inhibition percentages (IP) for the combined treatments were calculated as described by Abraham: IP = [(genotoxin alone-combined treatment)/genotoxin alone] × 100.

[2] = tested on: Drosophila melanogaster; test: Chronic treatments: lifespan and healthspan assays; format: in vivo; conditions: for Healthspan (80th Percentile) / Mean Lifespan: chronic, mean ±SE
Method: Flies used in the lifespan assays show the same genetic background those used in the genotoxicity assays in order to compare both result. The treated adults consisted of the F1 progeny from mwh and flr^3 parental strains produced by a 24 h eggs-lying in yeast medium. The same compounds and concentrations as in the toxicity/genotoxicity experiments were assayed. Lifespan assays were carried out at 25 °C according to the procedure described by Fernandez-Bedmar et al.. Briefly, synchronized 72 ± 12-h-old trans-heterozygous larvae were washed in distilled water, collected and transferred in groups of 100 individuals into test vials containing 0.85 g Drosophila Instant Medium and 4 mL of the different concentrations of the compounds to be assayed. Emerged adults from pupae were collected under CO2 anaesthesia and placed in groups of 25 individuals of the same sex into sterile vials containing 0.21 g Drosophila Instant Medium and 1 mL of different concentrations of the compounds to be tested. Flies were chronically treated during all their life. The number of survivors was determined twice a week in three different replicates.

[3] = tested on: Alu M1 repetitive sequences of HL-60 cells; test: Methylation status by qMSP, Alu M1; format: cell-based, human; conditions: HL-60, 5 h, 11 mM GLU
Method: Then, DNA was extracted similarly to previously described DNA fragmentation assay. After that, the DNA was converted with bisulphite (EZ DNA Methylation-Gold™ Kit, Zymo Research, Irvine, CA, USA). Bisulphite-modified DNA was used for fluorescence-based real-time quantitative Methylation-Specific PCR (qMSP) using 5 µM of each forward and reverse primer (Isogen Life Science BV, Utrecht, The Netherlands), 2 µL of iTaq™ Universal SYBR® Green Supermix (Bio-Rad Laboratories, Inc., Hercules, CA, USA); it contains antibody-mediated hot-start iTaq DNA polymerase, dNTPs, MgCl2, SYBR® Green I dye, enhancers, stabilizers and a blend of passive reference dyes including ROX and fluorescein) and 25 ng of bisulphite converted genomic DNA.
PCR conditions included initial denaturalisation at 95 °C for 3 min and amplification which consisted of 45 cycles at 95 °C for 10 s, 60 °C for 15 s and 72 °C for 15 s, taking picture at the end of each elongation cycle. After that, melting curve was determined increasing 0.5 °C each 0.05 s from 60 °C to 95 °C and taking pictures.
QMSP was carried out in 48 well plates in MiniOpticon Real-Time PCR System (MJ Mini Personal Thermal Cycler, Bio-Rad) and were analysed by Bio-Rad CFX Manager 3.1 Software. The housekeeping Alu-C4 was used as a reference to correct for total DNA input. […] Each sample was analysed in triplicate. […]

[4] = tested on: human umbilical endothelial cells; conditions: 30 mM GLU; cited from earlier work
[5] = tested on: Drosophila melanogaster; test: Toxicity assay, survival of larvae to adults (simple treatment)
Method: Toxicity was assayed according to our standard protocols. […] Tested groups consisted of larvae fed with Drosophila Instant Medium (Formula 4–24, Carolina Biological Supply, Burlington, NC, USA) supplemented with the assessed compounds concentrations. Emerging adults of all groups were counted and toxicity was determined as the percentage of hatched individuals in each treatment compared with the negative control.

[6] = GLU 11 mM + 0.15 M H2O2, No. of spots in parentheses
[7] = GLU 350 mM + 0.15 M H2O2, No. of spots in parentheses
[8] = GLU 2.7 mM vs concurrent water control
[9] = GLU 11 mM vs concurrent water control
[10] = GLU 21.86 mM vs concurrent water control
[11] = GLU 87.5 mM vs concurrent water control
[12] = GLU 350 mM vs concurrent water control

Compound: OC[C@H]1OC(O)[C@H](O)[C@@H](O)[C@@H]1O (some centres unmarked) [GLU, Glucose]
- IP (%) inhibition percentage ([1]; GLU 11 mM + 0.15 M H2O2): 76.5%
- Twin Spots m = 5 ([1]; GLU 11 mM + 0.15 M H2O2): 0 clones per wing
- Large Simple Spots (>2 Cells) m = 5 [1, 6]: 0.025 (1) clones per wing
- Small Single Spots (1–2 Cells) m = 2 [1, 6]: 0.075 (3) clones per wing
- Total Spots m = 2 [1, 6]: 0.1 (4) clones per wing
- Total Spots, statistical diagnosis (Kastenbaum-Bowman test) ([1]; GLU 11 mM + 0.15 M H2O2 vs positive control): *
- IP (%) inhibition percentage ([1]; GLU 350 mM + 0.15 M H2O2): 52.9%
- Twin Spots m = 5 ([1]; GLU 350 mM + 0.15 M H2O2): 0 clones per wing
- Large Simple Spots (>2 Cells) m = 5 [1, 7]: 0.025 (1) clones per wing
- Small Single Spots (1–2 Cells) m = 2 [1, 7]: 0.175 (7) clones per wing
- Total Spots m = 2 [1, 7]: 0.2 (8) clones per wing
- Total Spots, statistical diagnosis (Kastenbaum-Bowman test) ([1]; GLU 350 mM + 0.15 M H2O2 vs positive control): *
- increase of the quality of life (healthspan) ([2]; 350 mM GLU): 34%
- Healthspan Difference (%) [2, 8]: −4.5%
- Mean Lifespan Difference (%) [2, 8]: 2.65%
- Healthspan (80th Percentile) ([2]; GLU 2.7 mM): 31.14 ± 1.53 days
- Mean Lifespan ([2]; GLU 2.7 mM): 61.25 ± 2.12 days
- Healthspan Difference (%) [2, 9]: 25.65%
- Mean Lifespan Difference (%) [2, 9]: 8.76%
- Healthspan (80th Percentile) ([2]; GLU 11 mM): 41 ± 3.4 days
- Mean Lifespan ([2]; GLU 11 mM): 64.9 ± 2.05 days
- Healthspan Difference (%) [2, 10]: −5.8%
- Mean Lifespan Difference (%) [2, 10]: 5.9%
- Healthspan (80th Percentile) ([2]; GLU 21.86 mM): 30.66 ± 3.62 days
- Mean Lifespan ([2]; GLU 21.86 mM): 63.21 ± 2.08 days
- Healthspan Difference (%) [2, 11]: −8.4%
- Mean Lifespan Difference (%) [2, 11]: 1.39%
- Healthspan (80th Percentile) ([2]; GLU 87.5 mM): 29.9 ± 1.96 days
- Mean Lifespan ([2]; GLU 87.5 mM): 60.5 ± 2.5 days
- Healthspan Difference (%) [2, 12]: −34%
- Mean Lifespan Difference (%) [2, 12]: −1.2%
- Healthspan (80th Percentile) ([2]; GLU 350 mM): 21.5 ± 0.76 days
- Mean Lifespan ([2]; GLU 350 mM): 59 ± 3.1 days
- lifespan compared with concurrent control ([2]; all tested concentrations): did not significantly differ
- methylation status of Alu sequences [3]: hypermethylated; also recorded: significantly increased
- cytotoxicity [4]: cytotoxicity was demonstrated
- Survival (%) Simple Treatment ([5]; GLU 2.7 mM): 98%
- Survival (%) Simple Treatment ([5]; GLU 11 mM): 92.65%
- Survival (%) Simple Treatment ([5]; GLU 21.86 mM): 90.32%
- Survival (%) Simple Treatment ([5]; GLU 87.5 mM): 70.3 * %
- Survival (%) Simple Treatment ([5]; GLU 350 mM): 65 * %

From paper PMC8069289 (Molecules, 2021)
